The source of these data is patent US8957108B2, “Use of 5,6-dimethylxanthenone-4-acetic acid as an antiviral agent” (University of Maryland, Baltimore, priority 2006, dated 2015).

One experiment relates to MEFs. The experiment is described as follows: RANTES protein in MEF supernatants. In kind it is cell-based, mouse. Particulars: MAVS+/+ and MAVS−/− MEFs, 24 h. The procedure: IFN-β protein in cell culture supernatants was measured using a custom ELISA originally described in Weinstein, S. L. et al. (2000) “Phosphatidylinositol 3-Kinase And mTOR Mediate Lipopolysaccharide-Stimulated Nitric Oxide Production In Macrophages Via Interferon-Beta,” J. Leukocyte Biol. 67:405-414, with few modifications. […] Plates were blocked with 10% FCS in 1×PBS for 2 h at room temperature. Samples and a murine IFN-β standard (NIH, Bethesda, Md.) were added to wells and incubated overnight at 4° C. […] Wells were washed 3× followed by incubation with a 1:2000 dilution of goat anti-rabbit HRP (Cell Signaling Technologies, Beverly, Mass.) in 10% FCS-PBS for 1 h at room temperature. Plates were washed 3× and developed with TMB substrate (KPL, Gaithersburg, Md.). The reaction was stopped by addition of 1N H2SO4, and plates were read at 450 nm. RANTES and TNF-α were quantified using Luminex bead-based colorimetric assays. […] For stimulation of cells, poly(I:C) was mixed with Fugene 6 transfection reagent (Roche) at a ratio of 1:1 (volume:weight) in OptiMEM medium and incubated for 15 min prior to stimulation. Culture supernatants of cells (2×10^4) seeded on 96-well plates were collected after 24 h stimulation and analyzed for RANTES levels with ELISA. ELISA was performed according to the manufacturer's instructions (R&D Systems).

Another experiment relates to peritoneal macrophages. Kind of experiment: Quantitative real-time PCR of cytokine mRNA in murine peritoneal macrophages. In general terms: Quantitative PCR measures a nucleic acid by following its amplification.
A further experiment relates to IRF-3. The experiment is described as follows: Native-PAGE and Western blotting for IRF-3 dimers. In kind it is cell-based, mouse. Particulars: macrophages pretreated with SA. How it is done:
Rabbit anti-mouse IκBα phospho-specific Ab (pAb) was purchased from Santa Cruz Biotechnology, Inc. (Santa Cruz, Calif.). Rabbit anti-mouse MAPK pAb and rabbit anti-human phospho-IRF-3 pAb antibodies were purchased from Cell Signaling (Danvers, Mass.). Rabbit anti-mouse IRF-3 pAb was purchased from Zymed (South San Francisco, Calif.). Native-PAGE for the detection of IRF-3 dimers was carried out as described in Iwamura, T. et al. (2001) “Induction Of IRF-3/-7 Kinase And NF-kappaB in Response To Double-Stranded RNA And Virus Infection: Common And Unique Pathways,” Genes and Cells 6:375-388. Briefly, thioglycollate-elicited peritoneal macrophages were lysed following stimulation with either LPS or DMXAA as indicated. […] Membranes were probed with a 1:250 dilution of rabbit anti-mouse IRF-3 for 1 h at room temperature. Goat anti-rabbit IgG-HRP (Cell Signaling Technologies, Danvers, Mass.) at a 1:2000 dilution was used as the secondary Ab. Blots were developed with ECL Plus (Amersham Biosciences, Piscataway, N.J.).
(A western blot detects proteins with antibodies after separation by electrophoresis.)

Where [1] appears, read: peritoneal macrophages pretreated with SA.

As to poly I:C [reference compound], in the experiment on MEFs, the “RANTES response in MAVS-deficient MEFs” value is on record as “completely abrogates”. In addition, the “TNF-α mRNA in the absence of TLR4” value in the experiment on peritoneal macrophages (TLR4−/− peritoneal macrophages, 2 h) was “induces TNF-α to wild-type levels”.
`O=C(O)c1ccccc1O` [SA, salicylic acid, reference compound]: in the experiment with IRF-3, the “IRF-3 dimer formation and phosphorylation of serine 396 in response to DMXAA” value was “inhibits”. In the experiment on peritoneal macrophages (setting [1]), the “effect on DMXAA-induced IFN-β expression” value is reported as “dramatically reduces” and the “effect on LPS-induced IFN-β mRNA expression” value was “essentially unaffected”.
